Calls of active or inactive are those of the source. The rule behind the calls is not given here.
Legend:
HepG2 [1] = assay: Induction of cell cycle arrest in human HepG2 cells assessed as accumulation of cells in G0/G1 phase at 50 nM measured after 48 hrs by RNase A/PI staining based flow cytometry analysis (Rvb= 56.42+/- 0.27%); type: functional
HepG2 [2] = assay: Induction of mitochondrial membrane potential loss in human HepG2 cells assessed as proportion of cells with depolarized mitochondria at 200 nM measured after 48 hrs by JC-1 staining based flow cytometry analysis (Rvb= 9.1%); type: functional
HepG2 [3] = assay: Induction of mitochondrial membrane potential loss in human HepG2 cells assessed as proportion of cells with hyperpolarized mitochondria at 75 nM measured after 48 hrs by JC-1 staining based flow cytometry analysis (Rvb= 80.9%); type: functional
HepG2 [4] = assay: Cytotoxicity against human HepG2 cells assessed as inhibition of cell proliferation measured after 48 hrs by MTT assay; type: functional, cell-based; details: HepG2, 48 h
[5] = Toxicity in zebrafish AB assessed as mortality at <12 uM measured at 72 hrs postfertilization; design: species or system Danio rerio; details: in vivo
[6] = Toxicity in zebrafish AB assessed as pericardial edema at 12 uM measured at 72 hrs postfertilization; design: species or system Danio rerio; details: in vivo
HepG2 [7] = assay: Induction of apoptosis in human HepG2 cells assessed as early apoptotic cells at 150 nM measured after 48 hrs by Annexin V-FITC/PI double staining based flow cytometry analysis (Rvb= 2.16%); type: functional
HepG2 [8] = assay: Induction of apoptosis in human HepG2 cells assessed as late apoptotic cells at 50 nM measured after 48 hrs by Annexin V-FITC/PI double staining based flow cytometry analysis (Rvb= 2.89%); type: functional
NCI-H1299 = assay: Cytotoxicity against human NCI-H1299 cells assessed as inhibition of cell proliferation measured after 48 hrs by MTT assay; type: functional, cell-based; details: NCI-H1299, 48 h
HepG2 [9] = assay: Induction of mitochondrial membrane potential loss in human HepG2 cells assessed as proportion of cells with depolarized mitochondria at 50 nM measured after 48 hrs by JC-1 staining based flow cytometry analysis (Rvb= 9.1%); type: functional
HepG2 [10] = assay: Induction of mitochondrial membrane potential loss in human HepG2 cells assessed as proportion of cells with depolarized mitochondria at 150 nM measured after 48 hrs by JC-1 staining based flow cytometry analysis (Rvb= 9.1%); type: functional
HepG2 [11] = assay: Induction of apoptosis in human HepG2 cells assessed as live cells at 75 nM measured after 48 hrs by Annexin V-FITC/PI double staining based flow cytometry analysis (Rvb= 94.8%); type: functional
HepG2 [12] = assay: Induction of ROS generation in human HepG2 cells assessed as increase in ROS level at 50 to 150 nM measured after 48 hrs by DCFH-DA staining based flow cytometry analysis; type: functional, cell-based; details: dose 50-150 nM
HepG2 [13] = assay: Induction of apoptosis in human HepG2 cells assessed as early apoptotic cells at 100 nM measured after 48 hrs by Annexin V-FITC/PI double staining based flow cytometry analysis (Rvb= 2.16%); type: functional
HepG2 [14] = assay: Induction of mitochondrial membrane potential loss in human HepG2 cells assessed as proportion of cells with hyperpolarized mitochondria at 100 nM measured after 48 hrs by JC-1 staining based flow cytometry analysis (Rvb= 80.9%); type: functional

For `CC(C)[C@]12O[C@H]1[C@@H]1O[C@]13[C@]1(O[C@H]1C[C@H]1C4=C(CC[C@@]13C)C(=O)OC4)[C@@H]2OC(=O)CCCCC[P+](c1ccccc1)(c1ccccc1)c1ccccc1.[Br-]`, the Activity (HepG2 [1]) was 72.22%, the Activity (HepG2 [2]) was 55.7% and the Activity (HepG2 [3]) was 64.4%. For the same compound, the IC50 (HepG2 [4]) was 67 nM, the Activity [5] was “Non-Toxic” and the Activity [6] was “Toxic”. It also gave an Activity (HepG2 [7]) of 33.7%, an Activity (HepG2 [8]) of 1.23% and an IC50 (NCI-H1299) of 254 nM. For the same compound, the Activity (HepG2 [9]) was 25.3%, the Activity (HepG2 [10]) was 48.9% and the Activity (HepG2 [11]) was 76.8%. The Activity (HepG2 [12]) was “Active”, the Activity (HepG2 [13]) was 27.8% and the Activity (HepG2 [14]) was 54.4%.

— ChEMBL document CHEMBL4840355, “Antitumor and toxicity study of mitochondria-targeted triptolide derivatives using triphenylphosphine (TPP+) as a carrier” (Bioorg Med Chem, 2021)
